Values after ≈ are worked out from the molar mass of the structure shown.
How the values were obtained:
Raoultella planticola [1] = assay: Antibacterial activity against gram-negative Klebsiella planticola MTCC 530 after 24 hrs by agar well diffusion method; format: functional; settings: MTCC 530, 24 h
Raoultella planticola [2] = assay: Bactericidal activity against gram-negative Klebsiella planticola MTCC 530 incubated for 24 hrs followed by microbial sample growth at Mueller Hinton agar plates; format: functional; settings: MTCC 530, 24 h
Micrococcus luteus [3] = assay: Antibacterial activity against gram-positive Micrococcus luteus MTCC 2470 after 24 hrs by agar well diffusion method; format: functional; settings: MTCC 2470, 24 h
Pseudomonas aeruginosa = assay: microbe, parasite or virus in culture; settings: MTCC 2453, 24 h
Description: Bactericidal activity against gram-negative Pseudomonas aeruginosa MTCC 2453 incubated for 24 hrs followed by microbial sample growth at Mueller Hinton agar plates

Micrococcus luteus [4] = assay: Bactericidal activity against gram-positive Micrococcus luteus MTCC 2470 incubated for 24 hrs followed by microbial sample growth at Mueller Hinton agar plates; format: functional; settings: MTCC 2470, 24 h
Bacillus subtilis [5] = assay: Antibacterial activity against gram-positive Bacillus subtilis MTCC 121 after 24 hrs by agar well diffusion method; format: functional; settings: MTCC 121, 24 h
Staphylococcus aureus [6] = assay: Bactericidal activity against gram-positive Staphylococcus aureus MLS-16 MTCC 2940 incubated for 24 hrs followed by microbial sample growth at Mueller Hinton agar plates; format: functional; settings: MLS-16 MTCC 2940, 24 h
Staphylococcus aureus [7] = assay: Antibacterial activity against gram-positive Staphylococcus aureus MTCC 96 after 24 hrs by agar well diffusion method; format: functional; settings: MTCC 96, 24 h
Bacillus subtilis [8] = assay: Bactericidal activity against gram-positive Bacillus subtilis MTCC 121 incubated for 24 hrs followed by microbial sample growth at Mueller Hinton agar plates; format: functional; settings: MTCC 121, 24 h
Escherichia coli [9] = assay: Antibacterial activity against gram-negative Escherichia coli MTCC 739 after 24 hrs by agar well diffusion method; format: functional; settings: MTCC 739, 24 h
Staphylococcus aureus [10] = assay: Bactericidal activity against gram-positive Staphylococcus aureus MTCC 96 incubated for 24 hrs followed by microbial sample growth at Mueller Hinton agar plates; format: functional; settings: MTCC 96, 24 h
Staphylococcus aureus [11] = assay: Antibacterial activity against gram-positive Staphylococcus aureus MLS-16 MTCC 2940 after 24 hrs by agar well diffusion method; format: functional; settings: MLS-16 MTCC 2940, 24 h
Escherichia coli [12] = assay: Bactericidal activity against gram-negative Escherichia coli MTCC 739 incubated for 24 hrs followed by microbial sample growth at Mueller Hinton agar plates; format: functional; settings: MTCC 739, 24 h
[13] = molecular target: T1, 4,4'-diapophytoene synthase (Staphylococcus aureus, UniProt A9JQL9); assay: Inhibition of Staphylococcus aureus dehydrosqualene synthase
T1 sequence (A9JQL9 whole entry): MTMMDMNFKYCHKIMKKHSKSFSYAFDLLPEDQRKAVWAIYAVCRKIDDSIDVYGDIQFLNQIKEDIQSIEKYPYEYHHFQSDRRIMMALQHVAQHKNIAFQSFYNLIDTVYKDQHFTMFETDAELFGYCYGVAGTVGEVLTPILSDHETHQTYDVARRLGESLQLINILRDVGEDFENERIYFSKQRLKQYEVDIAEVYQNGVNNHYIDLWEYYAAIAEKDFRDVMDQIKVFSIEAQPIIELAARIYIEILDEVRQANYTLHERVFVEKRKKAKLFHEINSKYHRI

Candida albicans [14] = assay: Antifungal activity against Candida albicans MTCC 3017 after 24 hrs by agar well diffusion method; format: functional; settings: MTCC 3017, 24 h
Candida albicans [15] = assay: Fungicidal activity against Candida albicans MTCC 3017 incubated for 24 hrs followed by microbial sample growth Sabouraud dextrose agar plates; format: functional; settings: MTCC 3017, 24 h

Compound	MIC (Raoultella planticola [1])	MBC (Raoultella planticola [2])	MIC (Micrococcus luteus [3])	MBC (Pseudomonas aeruginosa)	MBC (Micrococcus luteus [4])	MIC (Bacillus subtilis [5])	MBC (Staphylococcus aureus [6])	MIC (Staphylococcus aureus [7])	MBC (Bacillus subtilis [8])	MIC (Escherichia coli [9])	MBC (Staphylococcus aureus [10])	MIC (Staphylococcus aureus [11])	MBC (Escherichia coli [12])	Ki [13]	MIC (Candida albicans [14])	MFC (Candida albicans [15])
O=C(O)c1cn(C2CC2)c2cc(N3CCNCC3)c(F)cc2c1=O [CIPROFLOXACIN]	0.9 µg/mL (≈ 2.72 µM)	0.9 µg/mL (≈ 2.72 µM)	0.9 µg/mL (≈ 2.72 µM)	0.9 µg/mL (≈ 2.72 µM)	0.9 µg/mL (≈ 2.72 µM)	0.9 µg/mL (≈ 2.72 µM)	0.9 µg/mL (≈ 2.72 µM)	0.9 µg/mL (≈ 2.72 µM)	0.9 µg/mL (≈ 2.72 µM)	0.9 µg/mL (≈ 2.72 µM)	0.9 µg/mL (≈ 2.72 µM)	0.9 µg/mL (≈ 2.72 µM)	0.9 µg/mL (≈ 2.72 µM)	–	–	–
CCOC(=O)c1c(N2CCN(C(=O)OC(C)(C)C)CC2)c2ccccc2n(CC)c1=O	–	–	–	–	–	–	–	3.9 µg/mL (≈ 9.08 µM)	–	–	7.8 µg/mL (≈ 18.2 µM)	–	–	20.2 µM	–	–
CCOC(=O)c1c(N2CCN(c3cccc(OC)c3)CC2)c2ccccc2n(CC)c1=O	–	–	7.8 µg/mL (≈ 17.9 µM)	–	15.6 µg/mL (≈ 35.8 µM)	–	–	3.9 µg/mL (≈ 8.95 µM)	–	–	7.8 µg/mL (≈ 17.9 µM)	–	–	15.7 µM	–	–
CCOC(=O)c1c(N2CCN(c3ccccc3OC)CC2)c2ccccc2n(CC)c1=O	–	–	–	–	–	–	–	3.9 µg/mL (≈ 8.95 µM)	–	–	7.8 µg/mL (≈ 17.9 µM)	–	–	14 µM	–	–
CCOC(=O)c1c(N2CCN(C(=O)OC(C)(C)C)CC2)c2ccccc2n(C)c1=O	–	–	–	–	–	–	–	3.9 µg/mL (≈ 9.39 µM)	–	–	7.8 µg/mL (≈ 18.8 µM)	–	–	5.19 µM	–	–
CCOC(=O)c1c(N2CCN(c3ccccc3F)CC2)c2ccccc2n(C)c1=O	–	–	3.9 µg/mL (≈ 9.52 µM)	–	7.8 µg/mL (≈ 19 µM)	3.9 µg/mL (≈ 9.52 µM)	15.6 µg/mL (≈ 38.1 µM)	3.9 µg/mL (≈ 9.52 µM)	7.8 µg/mL (≈ 19 µM)	3.9 µg/mL (≈ 9.52 µM)	7.8 µg/mL (≈ 19 µM)	7.8 µg/mL (≈ 19 µM)	7.8 µg/mL (≈ 19 µM)	7.87 µM	3.9 µg/mL (≈ 9.52 µM)	7.8 µg/mL (≈ 19 µM)
CCOC(=O)c1c(N2CCN(c3ccc(F)cc3)CC2)c2ccccc2n(CC)c1=O	3.9 µg/mL (≈ 9.21 µM)	7.8 µg/mL (≈ 18.4 µM)	3.9 µg/mL (≈ 9.21 µM)	–	7.8 µg/mL (≈ 18.4 µM)	3.9 µg/mL (≈ 9.21 µM)	7.8 µg/mL (≈ 18.4 µM)	3.9 µg/mL (≈ 9.21 µM)	7.8 µg/mL (≈ 18.4 µM)	3.9 µg/mL (≈ 9.21 µM)	7.8 µg/mL (≈ 18.4 µM)	3.9 µg/mL (≈ 9.21 µM)	7.8 µg/mL (≈ 18.4 µM)	6.89 µM	3.9 µg/mL (≈ 9.21 µM)	7.8 µg/mL (≈ 18.4 µM)
CCOC(=O)c1c(N2CCN(c3ccccc3C(F)(F)F)CC2)c2ccccc2n(C)c1=O	–	–	–	–	–	–	–	–	–	–	–	–	–	–	7.8 µg/mL (≈ 17 µM)	15.6 µg/mL (≈ 34 µM)
CCOC(=O)c1c(N2CCN(c3ccccc3C(F)(F)F)CC2)c2ccccc2n(CC)c1=O	–	–	–	–	–	7.8 µg/mL (≈ 16.5 µM)	–	–	15.6 µg/mL (≈ 32.9 µM)	7.8 µg/mL (≈ 16.5 µM)	–	–	15.6 µg/mL (≈ 32.9 µM)	–	7.8 µg/mL (≈ 16.5 µM)	15.6 µg/mL (≈ 32.9 µM)
Clc1ccc(COC(Cn2ccnc2)c2ccc(Cl)cc2Cl)c(Cl)c1 (stereo not given) [MICONAZOLE]	–	–	–	–	–	–	–	–	–	–	–	–	–	–	7.8 µg/mL (≈ 18.7 µM)	7.8 µg/mL (≈ 18.7 µM)
CCOC(=O)c1c(N2CCN(c3ccccc3F)CC2)c2ccccc2n(CC)c1=O	7.8 µg/mL (≈ 18.4 µM)	7.8 µg/mL (≈ 18.4 µM)	–	–	–	–	–	3.9 µg/mL (≈ 9.21 µM)	–	–	7.8 µg/mL (≈ 18.4 µM)	–	–	8.33 µM	–	–
CCOC(=O)c1c(N2CCN(c3ccc(F)cc3)CC2)c2ccccc2n(C)c1=O	–	–	–	–	–	–	–	3.9 µg/mL (≈ 9.52 µM)	–	–	7.8 µg/mL (≈ 19 µM)	–	–	1.26 µM	7.8 µg/mL (≈ 19 µM)	15.6 µg/mL (≈ 38.1 µM)
CCOC(=O)c1c(N2CCCC2)c2ccccc2n(CC)c1=O	–	–	7.8 µg/mL (≈ 24.8 µM)	–	15.6 µg/mL (≈ 49.6 µM)	–	–	–	–	–	–	–	–	–	–	–
CCOC(=O)c1c(N2CCN(c3ccccc3OC)CC2)c2ccccc2n(C)c1=O	–	–	–	–	–	–	–	3.9 µg/mL (≈ 9.25 µM)	–	–	7.8 µg/mL (≈ 18.5 µM)	–	–	19.8 µM	–	–
